Reference: the NIST ThermoML archive (doi:10.1016/j.fluid.2018.05.028)

Test: xn = mol fraction of the nth substance listed
Conditions: 101 kPa, Liquid; for speed of sound: Single path-length method; for mass density: Vibrating tube method; for viscosity: Concentric cylinders viscometry

CCCCCCCC/C=C\CCCCCCCC(=O)OCC [ethyl (Z)-9-octadeceneoate] + CCCO
Conditions | mass density [kg/m3] | speed of sound [m/s] | viscosity [mPa·s]
318.15 K, x2 = 0 | 850.78 | – | –
318.15 K, x2 = 0.1 | 848.97 | – | –
318.15 K, x2 = 0.2 | 846.91 | – | –
318.15 K, x2 = 0.3 | 844.5 | – | –
318.15 K, x2 = 0.4 | 841.62 | – | –
318.15 K, x2 = 0.5 | 838.06 | 1272.1 | –
318.15 K, x2 = 0.6 | 833.53 | 1260.7 | –
318.15 K, x2 = 0.7 | 827.44 | 1245.5 | –
318.15 K, x2 = 0.8 | 818.94 | 1224.5 | –
318.15 K, x2 = 0.9 | 805.97 | 1191.9 | –
323.15 K, x2 = 0 | 847.17 | 1288.9 | 3.214
323.15 K, x2 = 0.1 | 845.32 | 1284.2 | 3.036
323.15 K, x2 = 0.2 | 843.22 | 1278.4 | 2.871
323.15 K, x2 = 0.3 | 840.76 | 1272 | 2.712
323.15 K, x2 = 0.4 | 837.83 | 1264.2 | 2.542
323.15 K, x2 = 0.5 | 834.21 | 1254.8 | 2.36
323.15 K, x2 = 0.6 | 829.63 | 1243.3 | 2.163
323.15 K, x2 = 0.7 | 823.48 | 1228.1 | 1.945
323.15 K, x2 = 0.8 | 814.91 | 1207.2 | 1.704
323.15 K, x2 = 0.9 | 801.87 | 1174.8 | 1.433
328.15 K, x2 = 0 | 843.58 | 1271.9 | 2.921
328.15 K, x2 = 0.1 | 841.67 | 1267.1 | 2.762
328.15 K, x2 = 0.2 | 839.52 | 1261.3 | 2.612
328.15 K, x2 = 0.3 | 837.01 | 1254.8 | 2.467
328.15 K, x2 = 0.4 | 834.04 | 1247.1 | 2.312
328.15 K, x2 = 0.5 | 830.37 | 1237.6 | 2.146
328.15 K, x2 = 0.6 | 825.72 | 1226.1 | 1.969
328.15 K, x2 = 0.7 | 819.5 | 1210.8 | 1.768
328.15 K, x2 = 0.8 | 810.86 | 1190 | 1.55
328.15 K, x2 = 0.9 | 797.72 | 1157.7 | 1.301
333.15 K, x2 = 0 | 839.98 | 1255.2 | 2.643
333.15 K, x2 = 0.1 | 838.03 | 1250.2 | 2.502
333.15 K, x2 = 0.2 | 835.83 | 1244.3 | 2.366
333.15 K, x2 = 0.3 | 833.26 | 1237.8 | 2.236
333.15 K, x2 = 0.4 | 830.24 | 1230 | 2.098
333.15 K, x2 = 0.5 | 826.5 | 1220.5 | 1.948
333.15 K, x2 = 0.6 | 821.79 | 1208.9 | 1.792
333.15 K, x2 = 0.7 | 815.49 | 1193.6 | 1.611
333.15 K, x2 = 0.8 | 806.76 | 1172.8 | 1.413
333.15 K, x2 = 0.9 | 793.52 | 1140.6 | 1.185
338.15 K, x2 = 0 | 836.39 | 1238.6 | 2.448
338.15 K, x2 = 0.1 | 834.39 | 1233.4 | 2.317
338.15 K, x2 = 0.2 | 832.14 | 1227.5 | 2.191
338.15 K, x2 = 0.3 | 829.51 | 1220.9 | 2.069
338.15 K, x2 = 0.4 | 826.42 | 1213 | 1.938
338.15 K, x2 = 0.5 | 822.62 | 1203.5 | 1.796
338.15 K, x2 = 0.6 | 817.84 | 1191.8 | 1.649
338.15 K, x2 = 0.7 | 811.45 | 1176.5 | 1.477
338.15 K, x2 = 0.8 | 802.63 | 1155.6 | 1.294
338.15 K, x2 = 0.9 | 789.27 | 1123.5 | 1.08
343.15 K, x2 = 0 | 832.81 | 1222.5 | 2.254
343.15 K, x2 = 0.1 | 830.76 | 1216.9 | 2.135
343.15 K, x2 = 0.2 | 828.45 | 1210.9 | 2.018
343.15 K, x2 = 0.3 | 825.76 | 1204.2 | 1.905
343.15 K, x2 = 0.4 | 822.6 | 1196.2 | 1.784
343.15 K, x2 = 0.5 | 818.73 | 1186.6 | 1.65
343.15 K, x2 = 0.6 | 813.87 | 1174.9 | 1.515
343.15 K, x2 = 0.7 | 807.39 | 1159.5 | 1.354
343.15 K, x2 = 0.8 | 798.46 | 1138.5 | 1.185
343.15 K, x2 = 0.9 | 784.97 | 1106.3 | 0.9873
